Reference: patent US12534469B2 (CHILDREN'S HOSPITAL MEDICAL CENTER, priority 2020, dated 2026)
Like-named read-outs stand apart in the source and are kept apart here.

Experiments:
IRAK4 = target: T1, IRAK4 (Homo sapiens, UniProt Q9NWZ3); assay: RBC HotSpot Kinase Assay, IRAK4; format: biochemical; design: purchased Reaction Biology (RBC HotSpot Kinase Assay)
T1 sequence (Q9NWZ3 1-460): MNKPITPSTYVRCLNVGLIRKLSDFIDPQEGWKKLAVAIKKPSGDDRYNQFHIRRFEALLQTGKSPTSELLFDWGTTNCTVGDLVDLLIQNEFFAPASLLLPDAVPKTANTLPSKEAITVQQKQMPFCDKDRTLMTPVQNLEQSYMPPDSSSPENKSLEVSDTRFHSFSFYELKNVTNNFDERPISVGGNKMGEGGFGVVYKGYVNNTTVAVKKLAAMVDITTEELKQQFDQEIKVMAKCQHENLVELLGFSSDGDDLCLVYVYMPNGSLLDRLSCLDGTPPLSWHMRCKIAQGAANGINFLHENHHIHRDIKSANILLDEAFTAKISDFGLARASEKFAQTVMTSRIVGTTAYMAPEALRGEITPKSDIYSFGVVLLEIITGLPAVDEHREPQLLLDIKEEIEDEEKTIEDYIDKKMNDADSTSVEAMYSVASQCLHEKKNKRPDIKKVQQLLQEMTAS
Outline: (§1)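 Radiometric filter-binding (HotSpot) activity assay on isolated recombinant kinase, possibly truncated or catalytic domain only, in 20 mM Hepes pH 7.5, 10 mM MgCl2, 1 mM EGTA, 2 mM DTT, 1% DMSO. Compound preincubated 20 min with kinase and substrate, then ^33P-ATP added. Reaction 2 h at room temperature, read by P81 filter binding.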

IRAK1 = target: T2, IRAK1 (Homo sapiens, UniProt P51617); assay: RBC HotSpot Kinase Assay, IRAK1; format: biochemical
T2 construct: purchased Reaction Biology (RBC HotSpot Kinase Assay)
Outline: as §1

FLT3 = target: T3, FLT3 (Homo sapiens, UniProt P36888); assay: RBC HotSpot Kinase Assay, FLT3; format: biochemical
T3 construct: purchased Reaction Biology (RBC HotSpot Kinase Assay)
T3 sequence (P36888 564-958 limits assumed): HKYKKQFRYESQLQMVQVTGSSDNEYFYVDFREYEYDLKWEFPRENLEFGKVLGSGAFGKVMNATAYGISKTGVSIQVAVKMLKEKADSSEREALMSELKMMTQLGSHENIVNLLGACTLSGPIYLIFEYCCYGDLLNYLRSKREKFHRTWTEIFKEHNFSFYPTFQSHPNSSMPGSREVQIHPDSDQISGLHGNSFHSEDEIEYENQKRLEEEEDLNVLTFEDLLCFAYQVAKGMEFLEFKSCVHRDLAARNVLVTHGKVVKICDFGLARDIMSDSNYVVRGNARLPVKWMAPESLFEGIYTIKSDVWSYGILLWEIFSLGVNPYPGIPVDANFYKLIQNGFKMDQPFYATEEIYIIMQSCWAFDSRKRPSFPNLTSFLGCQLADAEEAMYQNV
Outline: as §1

MOLM14 D835Y cells = assay: MOLM14 D835Y cell viability assay (Cell Titer Glo); format: cell-based
Procedure: (§2) Both cell lines have activated FLT3 receptors, each of which carry additional resistance mutations in the kinase domain (D835Y and F691L, respectively).
(§3) MOLM14 D835Y and MOLM14 F691L cells were grown in RPMI-1640 media supplemented with 20% fetal bovine serum (FBS). For viability/cytotoxicity assessments, cells were seeded into 1536-well white polystyrene tissue culture-treated Greiner plates using a Multidrop Combi dispenser (ThermoFisher), in final volume 5 μL of growth media per well, at a density of 1000 cells per well. After cell addition, 23 nL of test compound were transferred into individual wells (22 doses tested for each test compound, with a 1:2 dilution series starting at 10 μM) via a 1536 pin-tool. Bortezomib (final concentration 2.3 μM) was used as a positive control for cell cytotoxicity. Plates were incubated for 48 hours at standard incubator conditions covered by a stainless steel gasketed lid to prevent evaporation. 48 hours post compound addition, 3 μL of Cell Titer Glo (Promega) were added to each well and plates were incubated at room temperature for 15 minutes with the stainless-steel lid in place. Luminescence readings were taken using a Viewlux imager (PerkinElmer) with a 2 second exposure time per plate.

MOLM14 F691L cells = assay: MOLM14 F691L cell viability assay (Cell Titer Glo); format: cell-based
Procedure: as §2, §3

THP-1-Blue NF-κB cells = assay: NF-kB SEAP reporter assay in THP-1-Blue NF-κB cells; format: cell-based; conditions: 24 hours
Procedure: THP-1-Blue NF-κB cells (InvivoGen) carrying a stable integrated NF-κB-inducible secreted embryonic alkaline phosphatase (SEAP) reporter construct were plated at a concentration of 1×10^5 cells per well. The cells were stimulated with Pam3CSK4 (1 ng/mL) or hIL1B (1 ng/mL). After 10-20 minutes, the cells were then treated with vehicle (DMSO) or serial dilutions of the test compounds (10 doses tested for each test compound, with a 1:10 dilution series starting at 1 μM or 3 μM) with a final volume of 200 μL for 24 hours at 37° C. After 24 hours, the cells were centrifuged and 20 μL supernatant was incubated with 180 μL QUANTI-Blue reagent at 37° C. for 30-60 minutes. The levels of NF-κB-induced gene expression were measured in a microplate reader at 620 nm.

[1] = stimulated with Pam3CSK4 (1 ng/mL), read-out: NF-κB Pam3SCK4 IC50
[2] = stimulated with hIL1B (1 ng/mL), read-out: NF-κB IL1B IC50

T2 sequence (P51617 whole entry): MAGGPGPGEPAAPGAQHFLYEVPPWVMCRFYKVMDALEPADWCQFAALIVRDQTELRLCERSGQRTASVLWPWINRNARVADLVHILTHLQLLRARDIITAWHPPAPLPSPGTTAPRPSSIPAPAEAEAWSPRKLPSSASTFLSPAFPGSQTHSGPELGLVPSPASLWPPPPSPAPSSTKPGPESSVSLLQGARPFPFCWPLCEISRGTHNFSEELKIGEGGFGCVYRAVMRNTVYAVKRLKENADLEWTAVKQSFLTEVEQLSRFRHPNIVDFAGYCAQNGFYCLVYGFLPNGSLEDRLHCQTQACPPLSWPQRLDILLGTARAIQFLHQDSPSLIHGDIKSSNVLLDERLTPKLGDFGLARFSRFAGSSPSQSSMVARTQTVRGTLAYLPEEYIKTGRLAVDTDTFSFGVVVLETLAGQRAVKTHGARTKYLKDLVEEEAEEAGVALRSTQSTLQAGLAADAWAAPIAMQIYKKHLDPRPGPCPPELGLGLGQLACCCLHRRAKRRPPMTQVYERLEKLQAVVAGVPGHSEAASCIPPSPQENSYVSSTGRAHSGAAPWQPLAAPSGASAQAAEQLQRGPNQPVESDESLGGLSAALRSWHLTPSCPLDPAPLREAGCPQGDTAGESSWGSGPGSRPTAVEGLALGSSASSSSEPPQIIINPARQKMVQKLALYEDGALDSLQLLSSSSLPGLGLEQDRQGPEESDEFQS

Row | Compound | IC50 (IRAK4) [µM] | IC50 (IRAK1) [µM] | IC50 (FLT3) [µM] | IC50 (MOLM14 D835Y cells; Homo sapiens, MOLM-14, 48 h) [µM] | IC50 (MOLM14 F691L cells; Homo sapiens, MOLM-14, 48 h) [µM] | IC50 (MOLM14 D835Y cells; 48 hours) [µM] | IC50 (MOLM14 F691L cells; 48 hours) [µM] | IC50 (THP-1-Blue NF-κB cells; [1]) [µM] | IC50 (THP-1-Blue NF-κB cells; [2]) [µM]
1 | Cn1cc(-c2ccc3ncc(-c4cccc(N[C@H]5CNC[C@@H]5F)n4)n3n2)cn1 [Compound 1, N-((3S,4S)-4-fluoropyrrolidin-3-yl)-6-(6-(1-methyl-1H-pyrazol-4-yl)imidazo[1,2-b]pyridazin-3-yl)pyridin-2-amine] | 0.013 | 0.331 | 0.0006 | 0.06 | 1.68 | – | – | – | –
2 | COc1cc2ncc(-c3cccc(N[C@H]4CNCC[C@@H]4F)n3)n2nc1-c1cnn(C)c1 [Compound 122, N-((3S,4S)-4-fluoropiperidin-3-yl)-6-(7-methoxy-6-(1-methyl-1H-pyrazol-4-yl)imidazo[1,2-b]pyridazin-3-yl)pyridin-2-amine] | 0.037 | 0.537 | 0.0007 | 0.049 | 0.686 | – | – | – | –
3 | COc1cc2ncc(-c3cccc(N[C@H]4CNCC[C@@H]4F)n3)n2nc1-c1cn[nH]c1 [Compound 120, N-((3S,4S)-4-fluoropiperidin-3-yl)-6-(7-methoxy-6-(1H-pyrazol-4-yl)imidazo[1,2-b]pyridazin-3-yl)pyridin-2-amine] | < 0.0005 | 0.085 | < 0.0005 | 0.02 | 0.275 | – | – | – | –
4 | COc1cc2ncc(-c3cccc(N[C@H]4CNC[C@@H]4F)n3)n2nc1C(F)F [Compound 116, 6-(6-(difluoromethyl)-7-methoxyimidazo[1,2-b]pyridazin-3-yl)-N-((3S,4S)-4-fluoropyrrolidin-3-yl)pyridin-2-amine] | < 0.0005 | 0.025 | < 0.0005 | 0.077 | 1.09 | – | – | 0.02 | 0.046
5 | COc1cc2ncc(-c3cc(F)cc(N[C@H]4CNC[C@@H]4F)n3)n2nc1C1CC1 [Compound 103, 6-(6-cyclopropyl-7-methoxyimidazo[1,2-b]pyridazin-3-yl)-4-fluoro-N-((3S,4S)-4-fluoropyrrolidin-3-yl)pyridin-2-amine] | 0.016 | 0.218 | < 0.0005 | 0.205 | 1.45 | – | – | – | –

Continued, values first:

Row | IC50 (IRAK4) [µM] | IC50 (IRAK1) [µM] | IC50 (FLT3) [µM] | IC50 (MOLM14 D835Y cells; Homo sapiens, MOLM-14, 48 h) [µM] | IC50 (MOLM14 F691L cells; Homo sapiens, MOLM-14, 48 h) [µM] | IC50 (MOLM14 D835Y cells; 48 hours) [µM] | IC50 (MOLM14 F691L cells; 48 hours) [µM] | IC50 (THP-1-Blue NF-κB cells; [1]) [µM] | IC50 (THP-1-Blue NF-κB cells; [2]) [µM] | Compound
6 | 1.77 | > 10 | 0.005 | – | – | 0.486 | 3.44 | – | – | COc1cc2ncc(-c3cccc(N[C@@H]4CCCNC4)n3)n2nc1C(C)(O)C(F)(F)F (single isomer, unassigned) [Compound 132]
7 | 0.183 | 8.64 | < 0.0005 | – | – | 0.244 | 1.72 | – | – | COc1cc2ncc(-c3cccc(N[C@H]4CNCC[C@@H]4F)n3)n2nc1C(C)(O)C(F)(F)F (single isomer, unassigned; fast-eluting) [Compound 134]
8 | 0.002 | 0.07 | < 0.0005 | 0.061 | 0.77 | – | – | 0.076 | 0.216 | COc1cc2ncc(-c3cccc(N[C@H]4CNCC[C@@H]4F)n3)n2nc1C(F)F [Compound 118, 6-(6-(difluoromethyl)-7-methoxyimidazo[1,2-b]pyridazin-3-yl)-N-((3S,4S)-4-fluoropiperidin-3-yl)pyridin-2-amine]
9 | 0.169 | > 10 | < 0.0005 | – | – | 0.386 | 4.33 | – | – | COc1cc2ncc(-c3cccc(N[C@H]4CNC[C@@H]4F)n3)n2nc1C(C)(O)C(F)(F)F (single isomer, unassigned; slow-eluting) [Compound 135]
10 | 0.01 | 3.14 | < 0.0005 | – | – | 0.031 | 0.344 | – | – | COc1cc2ncc(-c3cccc(N[C@H]4CNCC[C@@H]4F)n3)n2nc1C(C)(O)C(F)(F)F (single isomer, unassigned; slow-eluting) [Compound 136]
11 | 0.004 | 0.383 | < 0.0005 | 0.109 | 1.37 | – | – | – | – | COc1cc2ncc(-c3cccc(N[C@@H]4CCCNC4)n3)n2nc1C(F)F [Compound 117, (R)-6-(6-(difluoromethyl)-7-methoxyimidazo[1,2-b]pyridazin-3-yl)-N-(piperidin-3-yl)pyridin-2-amine]
